Source: BindingDB's records for patent US20240034743 (Qilu Pharmaceutical, 2024)

target: Epidermal growth factor receptor (Homo sapiens, UniProt P00533); assay: Not found
Description: Not found

Epidermal growth factor receptor, sequence (P00533 whole entry): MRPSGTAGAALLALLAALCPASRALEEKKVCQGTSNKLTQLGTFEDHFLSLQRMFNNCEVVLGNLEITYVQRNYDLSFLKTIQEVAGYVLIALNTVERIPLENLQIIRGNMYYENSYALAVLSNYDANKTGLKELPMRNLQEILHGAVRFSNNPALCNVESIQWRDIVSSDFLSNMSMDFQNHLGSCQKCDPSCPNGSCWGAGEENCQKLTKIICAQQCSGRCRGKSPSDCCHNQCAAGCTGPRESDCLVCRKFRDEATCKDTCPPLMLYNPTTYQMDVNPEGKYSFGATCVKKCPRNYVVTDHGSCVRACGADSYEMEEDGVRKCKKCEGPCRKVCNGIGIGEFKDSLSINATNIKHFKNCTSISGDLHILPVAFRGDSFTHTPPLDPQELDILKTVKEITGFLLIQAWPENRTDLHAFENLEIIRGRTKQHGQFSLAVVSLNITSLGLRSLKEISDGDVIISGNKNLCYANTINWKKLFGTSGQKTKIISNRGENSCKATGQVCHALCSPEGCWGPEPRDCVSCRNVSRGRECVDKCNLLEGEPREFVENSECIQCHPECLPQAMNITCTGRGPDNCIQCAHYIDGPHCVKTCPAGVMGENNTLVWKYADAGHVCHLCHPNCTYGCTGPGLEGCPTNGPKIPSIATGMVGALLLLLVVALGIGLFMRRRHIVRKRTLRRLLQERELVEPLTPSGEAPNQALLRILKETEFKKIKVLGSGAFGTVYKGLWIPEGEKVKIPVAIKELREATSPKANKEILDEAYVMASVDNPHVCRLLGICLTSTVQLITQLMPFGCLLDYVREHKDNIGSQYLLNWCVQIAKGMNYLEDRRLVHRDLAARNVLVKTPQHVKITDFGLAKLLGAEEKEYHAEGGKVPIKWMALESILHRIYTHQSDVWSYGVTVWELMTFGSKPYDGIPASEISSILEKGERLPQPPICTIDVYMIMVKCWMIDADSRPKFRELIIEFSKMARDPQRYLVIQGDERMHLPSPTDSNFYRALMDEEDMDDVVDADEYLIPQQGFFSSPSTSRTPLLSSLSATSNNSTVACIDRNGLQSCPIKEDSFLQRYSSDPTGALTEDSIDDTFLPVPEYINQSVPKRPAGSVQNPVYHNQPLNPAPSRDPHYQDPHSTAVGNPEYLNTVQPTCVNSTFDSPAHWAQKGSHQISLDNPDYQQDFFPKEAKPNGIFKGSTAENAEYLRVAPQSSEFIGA

IC50	SMILES
< 1 nM	COc1cc2c(cc1Nc1ncc(Cl)c(Nc3ccc4nccnc4c3P(C)(C)=O)n1)-c1cnn(C)c1CCN2C [US20240034743, Compound 13]
< 1 nM	COc1cc2c(cc1Nc1ncc(Br)c(Nc3ccccc3P(C)(C)=O)n1)-c1cnn(C)c1CCN2C1CN(C)C1 [US20240034743, Compound 59]
< 1 nM	COc1cc2c(cc1Nc1ncc(Br)c(Nc3ccc4nccnc4c3P(C)(C)=O)n1)-c1cnn(C)c1CCN2C1CN(C(C)C)C1 [US20240034743, Compound 63]
< 1 nM	COc1cc2c(cc1Nc1ncc(Br)c(Nc3ccc4nccnc4c3P(C)(C)=O)n1)-c1cnn(C)c1CCN2C1CN(CC2CC2)C1 [US20240034743, Compound 70]
< 1 nM	COc1cc2c(cc1Nc1ncc(Br)c(Nc3ccc4nccnc4c3P(C)(C)=O)n1)-c1cnn(C)c1CCN2C1CC1 [US20240034743, Compound 74]
< 1 nM	COc1cc2c(cc1Nc1ncc(C)c(Nc3ccc4nccnc4c3P(C)(C)=O)n1)-c1cnn(C)c1CCN2C(C)C [US20240034743, Compound 85]
< 1 nM	COc1cc2c(cc1Nc1ncc(Br)c(Nc3ccc4nccnc4c3P(C)(C)=O)n1)-c1cnn(C)c1CCN2C1CC2(C1)CN(C)C2 [US20240034743, Compound 89]
> 1000 nM	COc1cc2c(cc1Nc1ncc(Br)c(Nc3ccc4nccnc4c3C(N)=O)n1)-c1cnn(C)c1CCN2C(C)C [US20240034743, Compound 115]
< 1 nM	COc1cc2c(cc1Nc1ncc(Br)c(Nc3ccc4nccnc4c3NS(C)(=O)=O)n1)-c1cnn(C)c1CCN2CC(C)C [US20240034743, Compound 133]
< 1 nM	CCN1CCc2c(cnn2C)-c2cc(Nc3ncc(Br)c(Nc4ccc5nccnc5c4NS(C)(=O)=O)n3)c(OC)cc21 [US20240034743, Compound 139]

SMILES	IC50
COc1cc2c(cc1Nc1ncc(Br)c(Nc3ccc4nccnc4c3P(C)(C)=S)n1)-c1cnn(C)c1CCN2C1CC2(C1)CN(C)C2 [US20240034743, Compound 93]	< 1 nM
COc1cc2c(cc1Nc1ncc(Br)c(Nc3ccc4nccnc4c3NS(C)(=O)=O)n1)-c1cnn(C)c1CCN2 [US20240034743, Compound 114]	< 1 nM

target: Epidermal growth factor receptor [L858R,T790M,C797S] (Homo sapiens, UniProt P00533, C797S/L858R/T790M); assay: Not found
Description: Not found

Epidermal growth factor receptor [L858R,T790M,C797S], sequence (P00533 25-1210 T790M/C797S/L858R limits assumed): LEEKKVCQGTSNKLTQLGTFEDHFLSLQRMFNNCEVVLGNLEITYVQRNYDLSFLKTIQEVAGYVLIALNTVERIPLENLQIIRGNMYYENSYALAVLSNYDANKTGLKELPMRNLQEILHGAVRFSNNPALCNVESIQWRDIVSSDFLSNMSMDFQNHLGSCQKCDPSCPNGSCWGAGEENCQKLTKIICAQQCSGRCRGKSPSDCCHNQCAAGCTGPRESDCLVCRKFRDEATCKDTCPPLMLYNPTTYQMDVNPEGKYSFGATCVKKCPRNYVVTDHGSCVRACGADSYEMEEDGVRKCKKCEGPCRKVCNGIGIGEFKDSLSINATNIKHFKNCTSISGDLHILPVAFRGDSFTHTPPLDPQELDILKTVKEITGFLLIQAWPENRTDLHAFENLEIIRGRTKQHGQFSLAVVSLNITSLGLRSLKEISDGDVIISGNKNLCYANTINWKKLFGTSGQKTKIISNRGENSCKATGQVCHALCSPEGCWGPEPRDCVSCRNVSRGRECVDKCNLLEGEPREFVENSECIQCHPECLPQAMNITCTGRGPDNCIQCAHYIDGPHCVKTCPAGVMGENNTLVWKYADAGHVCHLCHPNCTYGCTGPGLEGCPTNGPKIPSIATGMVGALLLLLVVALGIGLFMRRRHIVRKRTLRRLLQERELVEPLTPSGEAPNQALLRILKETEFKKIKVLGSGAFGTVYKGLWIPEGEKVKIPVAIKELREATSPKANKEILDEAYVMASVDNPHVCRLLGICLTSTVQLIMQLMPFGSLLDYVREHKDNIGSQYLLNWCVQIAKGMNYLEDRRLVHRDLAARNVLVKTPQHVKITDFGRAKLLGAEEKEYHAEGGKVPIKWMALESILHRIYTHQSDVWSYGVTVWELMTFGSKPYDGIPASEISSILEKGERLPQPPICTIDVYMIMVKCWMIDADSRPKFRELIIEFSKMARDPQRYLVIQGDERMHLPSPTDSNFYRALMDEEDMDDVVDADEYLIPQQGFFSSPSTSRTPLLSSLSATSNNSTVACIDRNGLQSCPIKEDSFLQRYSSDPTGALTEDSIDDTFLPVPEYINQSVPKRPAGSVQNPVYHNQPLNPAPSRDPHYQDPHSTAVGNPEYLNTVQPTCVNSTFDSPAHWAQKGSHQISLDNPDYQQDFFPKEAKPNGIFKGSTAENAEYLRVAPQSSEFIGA

IC50	SMILES
< 1 nM	COc1cc2c(cc1Nc1ncc(Br)c(Nc3ccc4nccnc4c3P(C)(C)=O)n1)-c1cnn(C)c1CCN2C [US20240034743, Compound 1]
< 1 nM	COc1cc2c(cc1Nc1ncc(Br)c(Nc3ccc4nccnc4c3P(C)(C)=O)n1)-c1cnn(C)c1CN(C)C2=O [US20240034743, Compound 9]
< 1 nM	COc1cc2c(cc1Nc1ncc(Br)c(Nc3ccc4nccnc4c3P(C)(C)=O)n1)-c1cnn(C)c1CCN2C(C)=O [US20240034743, Compound 15]
< 1 nM	COc1cc2c(cc1Nc1ncc(C(F)(F)F)c(Nc3ccccc3P(C)(C)=O)n1)-c1cnn(C)c1CCN2C [US20240034743, Compound 26]
< 1 nM	COc1cc2c(cc1Nc1ncc(Br)c(Nc3ccccc3P(C)(C)=O)n1)-c1ccnn1CCN2C [US20240034743, Compound 29]
< 1 nM	COc1cc2c(cc1Nc1ncc(Br)c(Nc3ccccc3NS(C)(=O)=O)n1)-c1cnn(C)c1CCN2C [US20240034743, Compound 32]
< 1 nM	COc1cc2c(cc1Nc1ncc(Br)c(Nc3ccccc3P(C)(C)=O)n1)-c1cnn(C)c1CCC2 [US20240034743, Compound 38]
< 1 nM	COc1cc2c(cc1Nc1ncc(Br)c(Nc3ccccc3P(C)(C)=O)n1)-c1cnn(C)c1CC=C2 [US20240034743, Compound 40]
< 1 nM	COc1cc2c(cc1Nc1ncc(Br)c(Nc3ccccc3P(C)(C)=O)n1)-c1cnn(C)c1COC2 [US20240034743, Compound 46]
< 1 nM	COc1cc2c(cc1Nc1ncc(Br)c(Nc3ccccc3P(C)(C)=O)n1)-c1cnnn1CCN2C [US20240034743, Compound 48]
< 1 nM	COc1cc2c(cc1Nc1ncc(Br)c(Nc3ccccc3P(C)(C)=O)n1)-c1cnn(C)c1CNC2 [US20240034743, Compound 49]
< 1 nM	COc1nc2c(cc1Nc1ncc(Br)c(Nc3ccccc3P(C)(C)=O)n1)-c1cnn(C)c1CCN2 [US20240034743, Compound 51]
< 1 nM	COc1cc2c(cc1Nc1ncc(Br)c(Nc3ccccc3P(C)(C)=O)n1)-c1cnc(C)n1CCN2C [US20240034743, Compound 55]
< 1 nM	COc1cc2c(cc1Nc1nc(Nc3ccccc3P(C)(C)=O)c3sccc3n1)-c1cnn(C)c1CCN2C [US20240034743, Compound 58]
< 1 nM	COc1cc2c(cc1Nc1ncc(Br)c(Nc3ccc4nccnc4c3P(C)(C)=O)n1)-c1cnn(C)c1CCN2C1CCN(C)CC1 [US20240034743, Compound 62]
< 1 nM	COc1cc2c(cc1Nc1ncc(Br)c(Nc3ccccc3P(C)(C)=O)n1)-c1cnn(C)c1CCN2C1COC1 [US20240034743, Compound 64]
< 1 nM	COc1cc2c(cc1Nc1ncc(Br)c(Nc3ccccc3P(C)(C)=O)n1)-c1cnn(C)c1CCN2CC(F)(F)F [US20240034743, Compound 73]
< 1 nM	COc1nc2c(cc1Nc1ncc(Br)c(Nc3ccccc3P(C)(C)=O)n1)-c1cnn(C)c1CCN2C [US20240034743, Compound 79]
< 1 nM	COc1cc2c(cc1Nc1ncc(Br)c(Nc3ccc4nccnc4c3P(C)(C)=O)n1)-c1cnn(C)c1CCN2C1CCCN(C)C1 (stereo not given) [US20240034743, Compound 84]
< 1 nM	COc1cc2c(cc1Nc1ncc(Br)c(Nc3ccc4nccnc4c3P(C)(C)=O)n1)-c1cnn(C)c1CCN2C1CCOCC1 [US20240034743, Compound 88]
< 1 nM	COc1cc2c(cc1Nc1ncc(Br)c(Nc3ccc4nccnc4c3P(C)(C)=O)n1)-c1cnn(C)c1CCN2C1CC2(C1)CN(C(C)C)C2 [US20240034743, Compound 90]
> 1000 nM	COc1cc2c(cc1Nc1ncc(Br)c(Nc3ccccc3N(C(C)C)S(C)(=O)=O)n1)-c1cnn(C)c1CCN2C(C)C [US20240034743, Compound 124]
> 1000 nM	CNS(=O)(=O)c1ccccc1Nc1nc(Nc2cc3c(cc2OC)N(C(C)C)CCc2c-3cnn2C)ncc1Br [US20240034743, Compound 127]
< 1 nM	COc1cc2c(cc1Nc1ncc(Br)c(Nc3cccc4c3NS(=O)(=O)C4)n1)-c1cnn(C)c1CCN2C(C)C [US20240034743, Compound 132]

SMILES	IC50
CCn1ncc2c1CCN(C)c1cc(OC)c(Nc3ncc(Br)c(Nc4ccccc4P(C)(C)=O)n3)cc1-2 [US20240034743, Compound 39]	< 1 nM
COc1cc2c(cc1Nc1ncc(Br)c(Nc3ccccc3P(C)(C)=O)n1)-c1cnn(C)c1CCC2N (stereo not given) [US20240034743, Compound 50]	< 1 nM
COc1cc2c(cc1Nc1ncc(Br)c(Nc3ccccc3P(C)(C)=O)n1)-c1cnn(C)c1CCN2C1CN(CCF)C1 [US20240034743, Compound 69]	< 1 nM
COc1cc2c(cc1Nc1ncc(Br)c(Nc3ccc4nccnc4c3P(C)(C)=S)n1)-c1cnn(C)c1CCN2C1CCN(C)CC1 [US20240034743, Compound 76]	< 1 nM
